Measurements reported in patent US5688767A, “Treatment of endotoxin-associated disorders with cationic peptides” (priority 1996, dated 1997).
Values after ≈ are worked out from the molar mass of the structure shown. Where two headings read alike, the source gives them in different places.

Columns and labels:
P. aeruginosa = assay: microbe, parasite or virus in culture; format: cell-based, Pseudomonas aeruginosa
Procedure: (§1) The minimum inhibitory concentrations of (MIC) of CEME, CEMA and melittin were determined for a number of different bacteria (Table 2). Briefly, cells were grown overnight at 37° C. in LB-S (Luria broth without any salt supplement) and diluted one in 10,000 in the same medium to give concentrations of about 10^4 to 10^5 CFU/ml. The broth dilutions were set up in a 96 well microtiter plate by putting 200 μl of LB-S containing the initial concentration of antibiotic or compound in column 1 and 100 μl of the same medium in columns 2-12. The compounds were diluted by taking 100 μl of broth from column 1 and mixing it with column 2, resulting in a one in two dilution. This was continued to column 10. Finally, 10 μl of bacteria were pipetted into columns 1-11, and the plates incubated overnight at 37° C. The next day the plates were scored for growth in the wells, and the MIC determined.
(§2) Bacteria included the Bort strain of E. coli (Bortolussi, et al., Inf. Immun., 25:293, 1979) that was originally derived from a case of neonatal meningitis, and which is therefore considered a relevant pathogenic strain to study, and the 0111:B4 strain of E. coli (kindly provided by Dr. D. Morrison) which is a standard source of endotoxin. (Kelly, et al., Inf. Immun., 59:4491, 1991). In addition, P. aeruginosa PA01 strain H103, P. aeruginosa M2, P. aeruginosa K799, Eschericha coli UB 1005, Enterobacter cloacae 218S, Salmonella typhimurium MS7953s, Klebsiella pneumoniae ATCC 13883, Xanthomonas maltophilia ATCC 13637, and Acinetobacter calcoacetious 8193 were employed. LPS was obtained from E. coli Bort by the technique of Westphal and Jann, (Westphal, et al., Acad. Press, Inc. NY., 5:83) and from P. aeruginosa H103 by the method of Darveau and Hancock, (Darveau, et al., J. Bacteriol, 155:831, […]). E. coli 0111:B4 LPS was purchased from Sigma.

E. coli = assay: microbe, parasite or virus in culture; format: cell-based, Escherichia coli
Procedure: as §1, §2

S. typhimurium = assay: microbe, parasite or virus in culture; format: cell-based, Salmonella typhimurium
Procedure: as §1, §2

E. cloacae = assay: microbe, parasite or virus in culture; format: cell-based, Enterobacter cloacae
Procedure: as §1, §2

S. aureus = assay: microbe, parasite or virus in culture; format: cell-based, Staphylococcus aureus
Procedure: as §1

P. AERUGINOSA H309 = assay: microbe, parasite or virus in culture; format: cell-based, Pseudomonas aeruginosa
Procedure: as §1, with “Briefly,” for “The minimum inhibitory concentrations of (MIC) of CEME, CEMA and melittin were determined for a number of different bacteria (Table 2). Briefly,”

[1] = MIC of common antibiotics in the presence of sub-MIC levels of cationic peptides; format: cell-based
Excerpt: The ability of the cationic peptides to work synergistically was examined by determining the MIC values for some commonly used antibiotics in the presence of sub-MIC levels of cationic peptides (Table 4). […] This may be due to the high membrane permeabilizing activity of CEMA (see below). However, the peptides did lower the MIC of polymyxin B, possibly due to the fact that they are all taken up by the same pathway and are therefore aiding each other's uptake. Of interest is the influence that melittin has on the MIC of polymyxin B, given the weak membrane permeabilizing activity of melittin.

P. aeruginosa H103 LPS = assay: Dansyl polymyxin (DPx) displacement from purified LPS; format: binding, Pseudomonas aeruginosa; conditions: 2.5 μM DPx, 3 μg/ml LPS, 5 mM HEPES pH 7.2, average of at least three trials
Procedure: In this assay, DPx was incubated with LPS to saturate the binding sites and then, while polycationic compounds are titrated into the reaction, displacement of the DPx was monitored by the decrease in fluorescence (FIG. 9). P. aeruginosa LPS was isolated as previously described (Darveau, et al., J of Bacteriology, 155:831, 1983) Dansyl polymyxin was synthesized as described by Schindler, et al., B. Antimicrobial Agents and Chemo, 8:95, 1975.
The method of Moore, et al., (Antimicrobial Agents and Chemo., 29:496, 1987), was used to test how much DPx was needed to saturate the binding sties on LPS. Briefly, 5 μl samples of 100 μM DPx were titrated sequentially into 1 ml of 3 μg/ml of LPS until a maximum fluorescence was reached. The fluorescence was measured in a Perkin-Elmer 650-10S fluorescence spectrophotometer with an excitation wavelength of 340 nm and an emission wavelength of 485 nm using slit widths of 5 nm. […] For the binding inhibition assays (Moore, et al., Antimicrobial Agents and Chemo., 29:496, 1987), 2.5 μM DPx was added to 3 μg/ml of H103 LPS in 5 mM HEPES pH 7.2. The test compounds were added 5 μl at a time and the decrease in fluorescence due to displacement of the DPx from the LPS was recorded.
When the data was plotted as a double reciprocal plot (FIG. 10), the X-intercept provided a value that is equal to -1/I50.

[2] = system: P. aeruginosa H309 Whole Cells; assay: DPx binding inhibition using whole cells; parameters: species or system Pseudomonas aeruginosa; conditions: DPx at 90-100% binding saturation, average of at least three trials
Procedure: For DPx binding inhibition assays using whole cells instead of purified LPS, H309 cells were prepared the same way as for the lysozyme lysis assay. The assay consisted of 10 μl of cells at an OD600 of 0.5, 990 μl of 5 mM HEPES pH 7.2 and 5 mM KCN, and the concentration of DPx that gave 90-100% binding saturation. […] Compounds were titrated in, and I50 values were determined as described above.

Compound: CC(C)(O/N=C(\C(=O)N[C@@H]1C(=O)N2C(C(=O)[O-])=C(C[n+]3ccccc3)CS[C@H]12)c1csc(N)n1)C(=O)O [Ceftazidime, ceftazidime]
- MIC (P. aeruginosa; Pseudomonas aeruginosa, strain H187, Parent of H188, read-out: MIC): 2 µg/mL (≈ 3.66 µM)
- MIC (P. aeruginosa; Pseudomonas aeruginosa, strain H188, Antibiotic sensitive, read-out: MIC): 0.03 µg/mL (≈ 0.0549 µM)
- MIC (P. aeruginosa; Pseudomonas aeruginosa, strain H309, Wildtype, read-out: MIC): 1 µg/mL (≈ 1.83 µM)
- MIC (E. coli; Escherichia coli, SC9251 / SC9252, strain SC9251, Parent of SC9252): 0.12 µg/mL (≈ 0.22 µM)
- MIC (E. coli; Escherichia coli, SC9252, strain SC9252, Polymyxin resistant): 0.5 µg/mL (≈ 0.915 µM)
- MIC (E. coli; Escherichia coli, strain DC2, Polymyxin sensitive): 0.06 µg/mL (≈ 0.11 µM)
- MIC (E. coli; Escherichia coli, strain UB1005, Parent of DC2 (Table 2)): 0.5 µg/mL (≈ 0.915 µM)
- MIC (S. typhimurium; Salmonella enterica, TYPHIMURIUM): 0.25 µg/mL (≈ 0.457 µM)
- MIC (S. typhimurium; strain C590, Defensin sensitive): 0.25 µg/mL (≈ 0.457 µM)
- MIC (E. cloacae; Enterobacter cloacae, strain 218R1, β-lactam resistant): > 16 µg/mL
- MIC (E. cloacae; Enterobacter cloacae, strain 218S, Parent of 218R1 (Table 2)): 0.5 µg/mL (≈ 0.915 µM)
- MIC (S. aureus; Staphylococcus aureus, strain RN4220, Methicillin sensitive): 8 µg/mL (≈ 14.6 µM)
- MIC (S. aureus; Staphylococcus aureus, strain SAP0017, Methicillin resistant): > 16 µg/mL
- MIC (P. AERUGINOSA H309; Pseudomonas aeruginosa, +5 mM Mg^++, read-out: MIC): 2 µg/mL (≈ 3.66 µM)
- MIC (P. AERUGINOSA H309; Pseudomonas aeruginosa, +80 mM Na^+, read-out: MIC): 2 µg/mL (≈ 3.66 µM)
- MIC (P. AERUGINOSA H309; Pseudomonas aeruginosa, No addition, read-out: MIC): 1 µg/mL (≈ 1.83 µM)
- MIC in the presence of ([1]; CEMA 0.7 μg/ml): 2 μg/m1
- MIC in the presence of ([1]; CEMA 1.4 μg/ml): 2 μg/m1
- MIC in the presence of ([1]; CEME 0.6 μg/ml): 4 μg/m1
- MIC in the presence of ([1]; CEME 1.2 μg/ml): 4 μg/m1
- MIC in the presence of ([1]; Melittin 2 μg/ml): 4 μg/m1
- MIC in the presence of ([1]; Melittin 4 μg/ml): 2 μg/m1
- MIC in the presence of ([1]; No peptide): 4 μg/m1

Compound: C[C@@H](O)[C@H]1C(=O)N2C(C(=O)O)=C(SCCN=CN)C[C@H]12 [Imipenem, imipenem]
- MIC in the presence of ([1]; CEMA 0.7 μg/ml): 4 μg/m1
- MIC in the presence of ([1]; CEMA 1.4 μg/ml): 2 μg/m1
- MIC in the presence of ([1]; CEME 0.6 μg/ml): 4 μg/m1
- MIC in the presence of ([1]; CEME 1.2 μg/ml): 4 μg/m1
- MIC in the presence of ([1]; Melittin 2 μg/ml): 4 μg/m1
- MIC in the presence of ([1]; Melittin 4 μg/ml): 4 μg/m1
- MIC in the presence of ([1]; No peptide): 4 μg/m1

Compound: CN(C)[C@@H]1C(O)=C(C(N)=O)C(=O)[C@@]2(O)C(O)=C3C(=O)c4c(O)cccc4[C@@](C)(O)[C@H]3C[C@@H]12 [Tetracycline, tetracycline]
- MIC in the presence of ([1]; CEMA 0.7 μg/ml): 8 μg/m1
- MIC in the presence of ([1]; CEMA 1.4 μg/ml): 4 μg/m1
- MIC in the presence of ([1]; CEME 0.6 μg/ml): 8 μg/m1
- MIC in the presence of ([1]; CEME 1.2 μg/ml): 8 μg/m1
- MIC in the presence of ([1]; Melittin 2 μg/ml): 8 μg/m1
- MIC in the presence of ([1]; Melittin 4 μg/ml): 8 μg/m1
- MIC in the presence of ([1]; No peptide): 8 μg/m1

Compound: gentamicin
- MIC (P. aeruginosa; strain H187, Parent of H188): 1 µg/mL
- MIC (P. aeruginosa; strain H188, Antibiotic sensitive): 0.25 µg/mL
- MIC (P. aeruginosa; strain H309, Wildtype): 1 µg/mL
- MIC (E. coli; strain UB1005, Parent of DC2 (Table 2)): 1 µg/mL
- MIC (E. cloacae; strain 218S, Parent of 218R1 (Table 2)): 0.5 µg/mL
- MIC (S. aureus; strain RN4220, Methicillin sensitive): 2 µg/mL
- MIC (S. aureus; strain SAP0017, Methicillin resistant): > 8 µg/mL
- MIC (P. AERUGINOSA H309; +5 mM Mg^++): 4 µg/mL
- MIC (P. AERUGINOSA H309; +80 mM Na^+): 1 µg/mL
- MIC (P. AERUGINOSA H309; No addition): 1 µg/mL
- I50, Value in μg/ml (P. aeruginosa H103 LPS): 18.16 ± 6.77 µg/mL
- IC50 (P. aeruginosa H103 LPS; read-out: I50, Value in μM): 19.2 ± 7.18 µM
- I50, Value in μg/ml [2]: 36.92 ± 9.12 µg/mL
